Measured values as given in ChEMBL document CHEMBL1201862, “PubChem BioAssay data set” (2004).
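Cultured in 96-well plates, cells were exposed to test compound for 48 hours across five concentrations. Here, GI50 denotes the concentration required for 50% inhibition of growth.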 Calls of active or inactive are those of the source. Rule as the data show it: active = GI50 up to about 1.1 µM and inactive = higher.

Assays:
Experiment in all cases: DTP human tumour cell line panel, 48 h
ACHN = system: ACHN
DU-145 = system: DU-145
HCC 2998 = system: HCC 2998
HCT-116 = system: HCT-116
HOP-92 = system: HOP-92
HT-29 = system: HT-29
Hs-578T = system: Hs-578T
MCF7 = system: MCF7
Malme-3M = system: Malme-3M
NCI-H23 = system: NCI-H23
NCI-H460 = system: NCI-H460
NCI-H522 = system: NCI-H522
OVCAR-5 = system: OVCAR-5
RXF 393 = system: RXF 393
SF-539 = system: SF-539
SK-OV-3 = system: SK-OV-3
SR = system: SR
UACC-257 = system: UACC-257
UACC-62 = system: UACC-62

Row | SMILES | GI50 (ACHN) | GI50 (DU-145) | GI50 (HCC 2998) | GI50 (HCT-116) | GI50 (HOP-92) | GI50 (HT-29) | GI50 (Hs-578T) | GI50 (MCF7) | GI50 (Malme-3M) | GI50 (NCI-H23) | GI50 (NCI-H460) | GI50 (NCI-H522) | GI50 (OVCAR-5) | GI50 (RXF 393) | GI50 (SF-539) | GI50 (SK-OV-3) | GI50 (SR) | GI50 (UACC-257) | GI50 (UACC-62)
1 | CN(C)/C=N/S(=O)(=O)c1nn2c(C=O)c(-c3ccc([N+](=O)[O-])cc3)nc2s1 | 2.03 µM (inactive) | 6.67 µM (inactive) | 17.4 µM (inactive) | 1.67 µM (inactive) | 12.6 µM (inactive) | 1.54 µM (inactive) | 24.5 µM (inactive) | 4.68 µM (inactive) | 2.23 µM (inactive) | 12 µM (inactive) | 13.6 µM (inactive) | 1.27 µM (inactive) | 23.4 µM (inactive) | 5.62 µM (inactive) | 8.11 µM (inactive) | 53.7 µM (inactive) | 2.06 µM (inactive) | 9.44 µM (inactive) | 4.91 µM (inactive)
2 | CC1(C)Cc2nc3c(cc2C(=O)C1/C=N/C(C#N)=C(\N)C#N)C(=O)C(/C=N/C(C#N)=C(\N)C#N)C(C)(C)C3 (configuration not stated) | 2.28 µM (inactive) | 2.3 µM (inactive) | 4.52 µM (inactive) | 1.54 µM (inactive) | 1.7 µM (inactive) | 2.54 µM (inactive) | 0.916 µM (active) | 2.15 µM (inactive) | 1.52 µM (inactive) | 2.71 µM (inactive) | 2.61 µM (inactive) | 0.705 µM (active) | 2.34 µM (inactive) | 1.68 µM (inactive) | 1.18 µM (inactive) | 3.02 µM (inactive) | 3.08 µM (inactive) | 2.51 µM (inactive) | 1.83 µM (inactive)
3 | Cc1cc(C)c2c(=O)n(CC(O)CN3CCN(c4ncccn4)CC3)sc2n1 (configuration not stated) | 18.4 µM (inactive) | 16.6 µM (inactive) | 18.9 µM (inactive) | 15.6 µM (inactive) | 29 µM (inactive) | 16.1 µM (inactive) | 21.4 µM (inactive) | 17.9 µM (inactive) | 20.1 µM (inactive) | 17.7 µM (inactive) | 17.5 µM (inactive) | 13 µM (inactive) | 16.5 µM (inactive) | 17.5 µM (inactive) | 17.8 µM (inactive) | 18.7 µM (inactive) | 4.79 µM (inactive) | 16.7 µM (inactive) | 17.8 µM (inactive)
4 | CCCCCCCCCCCCCCCCCC(=O)OCC(COC1OC(COP(=O)(O)O)C(O)C(O)C1O)OC(=O)CCCCCCCCCCCCCCCCC (configuration not stated) | 6.41 µM (inactive) | 9.62 µM (inactive) | 7.29 µM (inactive) | 8.83 µM (inactive) | 4.14 µM (inactive) | 5.32 µM (inactive) | 6.14 µM (inactive) | 8.38 µM (inactive) | 7.52 µM (inactive) | 7.78 µM (inactive) | 11.7 µM (inactive) |  | 5.28 µM (inactive) | 8.95 µM (inactive) | 9.44 µM (inactive) | 8 µM (inactive) | 0.0227 µM (active) | 8.61 µM (inactive) | 8.57 µM (inactive)
5 | N=C(N)NS(=O)(=O)c1ccc(NC(=O)c2cccc3c(NNc4ccc(S(=O)(=O)N=C(N)N)cc4)c4ccccc4nc23)cc1 | 75 µM (inactive) | > 100 µM (inactive) | 90.6 µM (inactive) | 35.7 µM (inactive) | 47.4 µM (inactive) | 31.1 µM (inactive) | 54.7 µM (inactive) | 29.9 µM (inactive) | 38.2 µM (inactive) | 52.4 µM (inactive) | 32.7 µM (inactive) | 25.6 µM (inactive) | > 100 µM (inactive) | > 100 µM (inactive) | > 100 µM (inactive) | > 100 µM (inactive) | 32.6 µM (inactive) | > 100 µM (inactive) | 46.9 µM (inactive)
6 | COc1cccc(-c2cc(O)c3cc(Cl)cnc3n2)c1 | 0.127 µM (active) | 0.358 µM (active) | 0.164 µM (active) | 0.0469 µM (active) | 0.469 µM (active) | 0.0908 µM (active) | 0.0743 µM (active) | 0.484 µM (active) | 2.25 µM (inactive) | 0.254 µM (active) | 0.0783 µM (active) | 0.0577 µM (active) | 1.33 µM (inactive) | 0.0698 µM (active) | 0.0348 µM (active) | 0.152 µM (active) | 0.0292 µM (active) | 6.92 µM (inactive) | 0.0589 µM (active)
7 | O=C1CSC(c2ccccc2)N1c1nc2cc3sc(N4C(=O)CSC4c4ccccc4)nc3cc2s1 (configuration not stated) | 35.6 µM (inactive) | 15.2 µM (inactive) | > 93.3 µM (inactive) | 24.6 µM (inactive) | > 100 µM (inactive) | 19.1 µM (inactive) | > 51.2 µM (inactive) | 12.9 µM (inactive) | > 87.7 µM (inactive) | 15 µM (inactive) | 3.1 µM (inactive) | 6.87 µM (inactive) | 60 µM (inactive) | > 100 µM (inactive) | 3.03 µM (inactive) | > 100 µM (inactive) | 16.5 µM (inactive) | 85.1 µM (inactive) | 56.8 µM (inactive)
